{
  "source": "paper PMC4980009",
  "about": "“Epitope Mapping of a Monoclonal Antibody Directed against Neisserial Heparin Binding Antigen Using Next Generation Sequencing of Antigen-Specific Libraries” (PLoS ONE, 2016)",
  "key": {"mAb 31E10/E7 [1]": {"target": "mAb 31E10/E7", "experiment": "Solution-equilibrium ELISA (Friguet) KD of NHBA fragment–mAb complexes", "type": "binding, murine", "conditions": "equilibrium in solution, antigen 7 to 480 nM with mAb 0.7 nM, -^§ = No interaction was detected under the tested conditions, read-out: KD ± SD (no interaction detected)", "source_text": "Next, we sought to directly compare, for their ability to reconstitute the epitope recognized by mAb 31E10/E7, the peptides identified by peptide scanning with the fragments previously identified by PROFILER. To this end, we selected Peptide 5 (Pep-5, spanning P95-E109; Fig 5A) and FrII (D91-A128; Fig 2A) as representatives of the two categories. First, we measured the ability of the fragments to compete with the whole antigen (NHBA-NUbp-His) for binding to mAb 31E10/E7 in the ELISA inhibition assay described above. […] To further analyze this, we measured the affinities of the NHBA fragments for mAb 31E10/E7 using an ELISA assay that can provide reliable estimates of the equilibrium dissociation constant (KD) of antigen-antibody complexes in solution [20].\nKD values of complexes between mAb 31E10/E7 and NHBA fragments at equilibrium in solution were measured using the ELISA test of Friguet et al, exactly as described by Heinrich et al.. […] Under these conditions, absorbance is proportional to the concentration of free mAb 31E10/E7 added to each well. The results for each antigen were analyzed using the plot described by Friguet et al ([19]; S2 Fig), which provides a KD value for the complex in solution. Results were expressed as means and standard deviations of the 4 KD values determined for each of the 4 antigen concentrations used to coat the wells."}, "mAb 31E10/E7 [2]": {"test_system": "mAb 31E10/E7", "experiment": "Inhibition ELISA of mAb 31E10/E7 binding to NHBA-NUbp-His", "parameters": "species or system murine", "source_text": "We sought to verify whether the antigenic fragments identified by phage display analysis reacted against the 31E10/E7 mAb in a molecular context other than capsid proteins and how these binding activities compared to that of the whole antigen molecule. For this analysis, FrI and FrII were produced as GST fusion proteins and probed against the 31E10/E7 mAb in an inhibition ELISA assay. A third fragment, FrIII, encompassing residues F324-D391, was also produced in fusion with GST and used as a negative control. In the ELISA inhibition experiments, the NHBA-NUbp-His fusion protein was used as coating antigen and reactivity against 31E10/E7 was measured in the presence and in the absence of GST-FrI, GST-FrII and GST-FrIII.\nThe immunoreactivity of NHBA antigenic fragments against the 31E10/E7 mAb was tested using a previously described ELISA inhibition assay. Briefly, the 31E10/E7 mAb (1 μg/ml) was preincubated with micromolar concentrations of competitors (represented by the indicated NHBA fragments or by the entire antigen fused to an histidine tail) prior to the addition to microtiter wells sensitized with the whole fusion antigen (NHBA-NUbp fused to an histidine tail or NHBA-NUbp-His, 5 μg/ml). […] Percent inhibition was calculated by comparing the absorbance value of wells with and without the inhibitors."}},
  "note": "pKd: −log10 of the molar value.",
  "data": [
    {"substance": "TPAS", "values": [
      {"measurement": "pKd", "setting": "mAb 31E10/E7 [1]", "value": "< 6.32"},
      {"measurement": "competition with the whole antigen for binding to mAb 31E10/E7", "setting": "mAb 31E10/E7 [2]; NHBA-NUbp-His coated 5 μg/ml, mAb 1 μg/ml, Fig 3B, three independent experiments", "value": "but not the TPAS tetrapeptide"},
      {"measurement": "binding to the mAb", "setting": "mAb 31E10/E7 [2]; even at high concentrations (Fig 3B)", "value": "unable to bind the mAb"}
    ]}
  ]
}
